Source: patent US10168338B2, “Methods of identifying modulators of sestrin-gator-2 interaction for modulating mTORC1 activity” (Whitehead Institute for Biomedical Research, priority 2014, dated 2019)

What was measured:
[1] = target: T1, Sestrin3 (Homo sapiens, UniProt P58005); experiment: [3H]-leucine binding to FLAG-Sestrin3 immunoprecipitated from HEK-293T cells; settings: FLAG-tagged protein from HEK-293T
T1 construct: expressed in transfected cells; host or cells: HEK-293T, transient transfection of a pRK5-based cDNA plasmid, anti-FLAG immunoprecipitation
T1 sequence (P58005 1-492): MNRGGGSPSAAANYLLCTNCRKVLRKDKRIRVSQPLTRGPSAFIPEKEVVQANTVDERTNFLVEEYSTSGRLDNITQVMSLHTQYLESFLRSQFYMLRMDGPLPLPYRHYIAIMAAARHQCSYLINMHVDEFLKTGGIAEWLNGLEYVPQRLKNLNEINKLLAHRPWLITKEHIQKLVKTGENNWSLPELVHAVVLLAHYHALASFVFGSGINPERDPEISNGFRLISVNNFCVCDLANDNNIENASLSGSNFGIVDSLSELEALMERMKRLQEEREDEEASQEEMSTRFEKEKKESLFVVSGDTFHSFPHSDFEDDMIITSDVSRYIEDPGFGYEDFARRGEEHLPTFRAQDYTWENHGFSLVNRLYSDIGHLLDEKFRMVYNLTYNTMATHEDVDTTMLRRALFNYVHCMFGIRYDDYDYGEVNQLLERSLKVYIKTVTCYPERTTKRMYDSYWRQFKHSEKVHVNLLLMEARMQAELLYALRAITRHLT
Protocol: Four million HEK-293T cells were plated in a 15 cm plate four days prior to the experiment. Each plate yielded the protein for one sample. Forty-eight hours after plating, the cells were transfected via the polyethylenimine method (O. Boussif et al., PNAS (USA), 92:7297-7301 (1995)) with the pRK5-based cDNA expression plasmids indicated in the figures in the following amounts: 5 μgFLAG-Sestrin2; 12 μg of the negative control Rap2A; 5 μg WDR24; 2 μg WDR24 with 4 μg each of HA-Seh1L, HA-Sec13, HA-Mios, and HA-WDR59; 12 […] (CG11299-PD); 12 μgFLAG-Sestrin1.1; 12 μg FLAG-Sestrin1.2; 12 μg FLAG-Sestrin3; 12 μg FLAG-Sestrin2 mutants (L261A, E451A, S190A) and up to 20 μg total DNA with empty-PRK5. Forty-eight hours after transfection cells were lysed as described in Example 1. […]
For the binding assays, two tubes at a time were washed as previously indicated for immunoprecipitations. […] With a cut tip, each sample was mixed well and three 10 μl aliquots were separately quantified using a TriCarb® scintillation counter (PerkinElmer). This process was repeated in pairs for each sample, to ensure similar incubation and wash times for all samples analyzed across different experiments.

[2] = target: T2, Sestrin-GATOR2 interaction (Homo sapiens, UniProt P58004); experiment: Effect of specific amino acids on Sestrin-GATOR2 interaction (FLAG-WDR24 immunoprecipitation, immunoblot); format: cell-based; settings: HEK-293T stably expressing FLAG-WDR24; starvation/restimulation, pre- or post-lysis addition, washes of immunoprecipitates
T2 construct: To isolate the FLAG-WDR24/endogenous-Sestrin2 complex; endogenous in cells; host or cells: HEK-293T cells stably expressing FLAG-WDR24; Sestrin2 and the other GATOR2 subunits are endogenous
T2 sequence (P58004 1-480): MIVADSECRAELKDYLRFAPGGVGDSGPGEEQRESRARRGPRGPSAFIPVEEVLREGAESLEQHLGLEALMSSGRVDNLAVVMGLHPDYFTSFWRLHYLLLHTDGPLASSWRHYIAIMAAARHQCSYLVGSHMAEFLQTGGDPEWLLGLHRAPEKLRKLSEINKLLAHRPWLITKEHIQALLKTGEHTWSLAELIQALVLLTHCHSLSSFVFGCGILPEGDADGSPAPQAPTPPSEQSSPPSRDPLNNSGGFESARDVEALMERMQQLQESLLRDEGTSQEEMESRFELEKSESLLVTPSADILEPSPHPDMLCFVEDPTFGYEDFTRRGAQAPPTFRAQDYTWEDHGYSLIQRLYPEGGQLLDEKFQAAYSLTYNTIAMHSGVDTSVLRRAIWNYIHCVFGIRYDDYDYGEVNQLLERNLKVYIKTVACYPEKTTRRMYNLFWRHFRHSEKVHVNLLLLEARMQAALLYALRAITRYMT
Protocol: In order to further explore if specific amino acid levels affected the Sestrin-GATOR2 interaction, HEK-293T cells stably expressing the FLAG-tagged GATOR2 component WDR24 (and FLAG-tagged metap2 as a control) were starved of either all amino acids (ALL); only leucine, arginine, and lysine (LRK); only leucine (L); only arginine (R); or only lysine (K) for 50 minutes, or starved for 50 minutes and restimulated for 10 minutes with the indicated amino acids.
HEK-293T cells stably expressing the FLAG-tagged GATOR2 component WDR24 were starved of all amino acids for 50 minutes. Individual amino acids were added pre-lysis to the cell culture media or post-lysis to cell lysates prior to FLAG immunoprecipitation.
Finally, HEK-293T cells stably expressing the FLAG-tagged GATOR2 component WDR24 were starved of all amino acids for 50 minutes. Immunoprecipitates were subjected to washes containing the indicated amounts of leucine or arginine and analyzed along with cell lysates by immunoblotting for the indicated proteins as shown in FIG. 8C.

[3] = target: T3, Sestrin2-GATOR2 complex (Homo sapiens, UniProt P58004); experiment: Amino acids added directly to immunopurified Sestrin2-GATOR2 complexes (immunoblot); format: binding
T3 construct: To isolate the FLAG-WDR24/endogenous-Sestrin2 complex; endogenous in cells; host or cells: HEK-293T cells stably expressing FLAG-WDR24; Sestrin2 and the other GATOR2 subunits are endogenous
T3 sequence (P58004 1-480): T2 sequence (P58004 1-480)
Protocol: We next tested if leucine acts directly on the Sestrin2-GATOR2 complex.
HEK-293T cells stably expressing FLAG-WDR24 were starved for all amino acids for 50 minutes, lysed and subjected to anti-FLAG immunoprecipitation as described previously. The GATOR2-Sestrin2 complexes immobilized on the agarose beads were washed twice in lysis buffer with 500 mM NaCl, as previously described, and then incubated for 10 minutes in 1 mL of cytosolic buffer with the indicated concentrations of individual amino acids. The amount of GATOR2 and Sestrin2 that remained bound was assayed by SDS-PAGE and immunoblotting as described previously.

- binding of leucine to Sestrin3 [1]: only slightly above background
- disruption of the Sestrin-GATOR2 interaction [2]: disrupts the Sestrin-GATOR2 interaction
- effect on the Sestrin2-GATOR2 interaction in vitro ([3]; 300 μM each, added directly to FLAG immunoprecipitates): disrupted the interaction
- EC50 ([3]; added to purified complexes from amino acid-starved cells, equilibrium not attained, relative potency only, read-out: half maximal effect on disruption of the Sestrin2-GATOR2 complex): ~1000 nM
Structure (SMILES): CC(C)C[C@H](N)C(=O)O [leucine]
